Test system: Mtb-infected mouse lungs
Assay: Genome-wide lung transcriptome (microarray, IPA network/GO analysis) of Mtb-infected mice
Assay type: in vivo
Settings: TNF-a regulon network

CCOc1cc([C@@H](CS(C)(=O)=O)N2Cc3cccc(NC(=O)C4CC4)c3C2=O)ccc1OC [CC-11050, N-[2-[(1S)-1-(3-ethoxy-4-methoxyphenyl)-2-(methylsulfonyl)ethyl]-2,3-dihydro-3-oxo-1H-isoindol-4-yl]-(9Cl) cyclopropanecarboxamide]
ENTPD5 expression: 0 | ERCC1 expression: 0 | ERG expression: 0 | ESM1 expression: 0 | FABP1 expression: 0 | FABP4 expression: 0 | FBL expression: 0 | FBXO32 expression: 0 | FCER1G expression: 0 | FCER2 expression: 0 | FGF2 expression: 1.266 | FGF10 expression: 0 | FGF18 expression: 0 | FGFRL1 expression: 0 | FMO1 expression: 0 | FN1 expression: 0 | FNBP1 expression: 0 | FOXO4 expression: 0 | FPR1 expression: 0 | FUT4 expression: 0 | GAB1 expression: 0 | GBP2 expression: 0 | GCLM expression: 0 | GHR expression: 0 | GNAI1 expression: 0 | GNB4 expression: 0 | GNL1 expression: 0 | GOSR2 expression: 0 | GPD1 expression: 0 | GPR126 expression: 0 | GPR176 expression: 0 | GRIA1 expression: 0 | GRN expression: 0 | GSTM2 expression: 0 | GSTT1 expression: 1.249 | GUSB expression: 0 | Gbp2 expression: 0 | Gbp4 expression: 0 | Gbp6 (includes others) expression: 0 | Gsta4 expression: 0 | H2-Q4 expression: 0 | HAPLN1 expression: 0 | HERC1 expression: 0 | HES1 expression: 0 | HEXB expression: 0 | HIF1A expression: 0 | HIPK3 expression: 0 | HIVEP1 expression: 0 | HK2 expression: 0 | HK3 expression: 0 | HLA-B expression: 0 | HLA-C expression: 0 | HLA-DRA expression: 0 | HLA-E expression: 0 | HLA-F expression: 0 | HMGN2 expression: 0 | HPGD expression: 0 | HPGDS expression: 0 | HPRT1 expression: 0 | HSD3B2 expression: 0 | HSD11B1 expression: 1.622 | ID1 expression: 1.521 | IDH2 expression: 0 | IDO1 expression: 0 | IFIH1 expression: 0 | IFIT1B expression: 0 | IFNAR2 expression: 0 | IGFBP5 expression: 0 | IGFBP6 expression: 0 | IL1RN expression: 0 | IL2RA expression: 0 | IL10RA expression: 0 | IL17RD expression: 0 | IL18BP expression: 0 | IL21R expression: 0 | IL21 expression: 0 | INHBA expression: 0 | IRF1 expression: 0 | IRF5 expression: 0 | IRF7 expression: 0 | IRF8 expression: 0 | IRG1 expression: 0 | ISG15 expression: 0 | ITGA4 expression: 0 | ITGAL expression: 0 | ITGAM expression: 0 | ITGB2 expression: 0 | ITGB7 expression: 0 | Ifi204 (includes others) expression: 0 | KCNJ1 expression: 0 | KDR expression: 0 | KIF20A expression: 0 | KITLG expression: 0 | KLF7 expression: 1.276 | KLF10 expression: 1.476 | KRT23 expression: 0 | KYNU expression: 0 | LAMP3 expression: 0 | LCAT expression: 0 | LCN2 expression: 0 | LEP expression: 0 | LGALS12 expression: 0 | LITAF expression: 0 | LOC653486/SCGB1C1 expression: 0 | LOX expression: 1.533 | LPL expression: 0 | LRRC8C expression: 0 | LTB expression: 0 | LXN expression: 0 | LYVE1 expression: 1.461 | MAN1C1 expression: 0 | MAP2K3 expression: 1.176 | MAP4K4 expression: -1.132 | MAPKAP1 expression: 0 | MARCKSL1 expression: 0 | MCL1 expression: 0 | MCM3 expression: 0 | MEFV expression: 0 | MEOX1 expression: 0 | MEOX2 expression: 0 | MMP7 expression: 1.207 | MMP8 expression: 0 | MMP13 expression: 0 | MMP16 expression: 0 | MMP28 expression: 0 | MPC1 expression: 0 | MSR1 expression: 0 | MUC4 expression: 0 | MVP expression: 0 | MYO9B expression: 0 | NAGLU expression: 0 | NAIP expression: 0 | NAMPT expression: 0 | NCAM1 expression: 0 | NCF2 expression: 0 | NCOA2 expression: 0 | NEDD9 expression: -1.086 | NFATC1 expression: 0 | NFKB2 expression: 0 | NFKBIA expression: 0 | NFKBIE expression: 0 | NFKBIZ expression: -1.15 | NFRKB expression: 0 | NME3 expression: 1.1811 | NNMT expression: 0 | NPM3 expression: 0 | NPPA expression: 0 | NR4A1 expression: 0 | NR4A3 expression: 0 | NRP1 expression: 0 | NTN1 expression: 0 | NUAK1 expression: 0 | NUAK2 expression: 0 | Nppb expression: 0 | OAS1 expression: 0 | OAS2 expression: 0 | OAS3 expression: 0 | OASL expression: 0 | OCLN expression: 0 | OGN expression: 1.2 | OLFML2B expression: 0 | OLR1 expression: 0 | P2RY6 expression: 0 | PAFAH2 expression: 0 | PC expression: 0 | PCBP2 expression: 0 | PCDH7 expression: 0 | PCK1 expression: 0
